In ChEMBL document CHEMBL4354808, “Drugs for the Treatment of Zika Virus Infection” (J Med Chem, 2020):
Each block holds one compound with its values, some of them ahead of it. Non-standard residues stand in square brackets, D forms with d. Residues, ends and D or L forms follow the SMILES beside them. *: point of attachment. Pro(4R-Me) = C[C@H]1CN[C@H](C(=O)O)C1; Oleoyl = CCCCCCCC/C=C\CCCCCCCC(=O)*; hSer = N[C@@H](CCO)C(=O)O

What was measured:
[1] = Inhibition of DHFR in Zika virus Mex2-81 infected in HBMEC assessed as antiviral activity incubated for 24 hrs
[2] = Cytotoxicity against HBMEC after 24 hrs by resazurin-dye based Alamar blue assay; conditions: human
[3] = system: Zika virus; assay: Antiviral activity against Zika virus infected in human A549 cells; assay type: functional, organism-based
[4] = Cytotoxicity against human A549 cells; assay type: cell-based
[5] = system: Zika virus; assay: Antiviral activity against Zika virus infected in African green monkey Vero cells after 72 hrs by DAPI-staining based assay; assay type: functional, organism-based
[6] = Cytotoxicity against human NSC; assay type: cell-based; conditions: NSC cells
[7] = Cytotoxicity against African green monkey Vero cells; assay type: cell-based; conditions: chlorocebus sabaeus
[8] = system: Zika virus; assay: Antiviral activity against Zika virus H/PAN/2016/BEI-259634 infected in human NSC by CellTiter-Glo assay; assay type: functional, organism-based
[9] = Cytotoxicity against human NSC after 5 days by CellTiter Blue assay; assay type: cell-based; conditions: NSC cells
[10] = system: Zika virus; assay: Antiviral activity against Zika virus MR 766 infected in African green monkey Vero cells measured 5 days post infection by CellTiter Blue assay; assay type: functional, organism-based; conditions: MR 766, Vero, 120 h
[11] = Cytotoxicity against African green monkey Vero cells after 5 days by CellTiter Blue assay; assay type: cell-based; conditions: chlorocebus sabaeus
[12] = system: Zika virus; assay: Antiviral activity against Zika virus MR 766 infected in human NSC measured 5 days post infection by CellTiter Blue assay; assay type: functional, organism-based; conditions: MR 766, 120 h
[13] = Cytotoxicity against HBMEC after 5 days by CellTiter Blue assay; conditions: human
[14] = system: Zika virus; assay: Antiviral activity against Zika virus MR 766 infected in HBMEC measured 5 days post infection by CellTiter Blue assay; assay type: functional, organism-based; conditions: MR 766, 120 h
[15] = Cytotoxicity against African green monkey Vero E6 cells measured up to 24 to 72 hrs by MTT assay; assay type: cell-based, Vero C1008; conditions: chlorocebus sabaeus
[16] = system: Zika virus; assay: Antiviral activity against Zika virus infected in African green monkey Vero E6 cells assessed as reduction in virus infectivity at 160 uM preincubated with virus for 1 hr followed by cell infection and measured after 96 hrs by crystal violet staining based assay relative to control; assay type: functional; conditions: Vero C1008
[17] = system: Zika virus; assay: Antiviral activity against Zika virus infected in African green monkey Vero E6 cells assessed as reduction in virus infectivity preincubated with virus for 1 hr followed by cell infection and measured after 96 hrs by crystal violet staining based assay; assay type: functional, organism-based; conditions: Vero C1008
[18] = Activation of AMPK in African green monkey Vero cells infected with Zika virus PA259459 assessed as antiviral activity measured 24 hrs post infection by plaque assay; assay type: cell-based; conditions: Chlorocebus aethiops
[19] = system: Zika virus; assay: Antiviral activity against Zika virus infected in African green monkey Vero E6 cells assessed as reduction in virus infectivity at 40 uM preincubated with virus for 1 hr followed by cell infection and measured after 96 hrs by crystal violet staining based assay relative to control; assay type: functional; conditions: Vero C1008
[20] = Cytotoxicity against human JEG3 cells by alamarBlue assay; assay type: cell-based; conditions: JEG-3 cells
[21] = system: Zika virus; assay: Antiviral activity against Zika virus PRVABC59 Puerto Rico infected in human JEG3 cells after 24 hrs by plaque assay; assay type: functional, organism-based; conditions: JEG-3, 24 h
[22] = Inhibition of Protein E in Zika virus infected in African green monkey Vero cells assessed as antiviral activity preincubated for 1 hr followed by viral infection and measured 24 hr post infection by plaque assay; assay type: cell-based
[23] = (§1) Inhibition of IMPDH in Zika virus MR766 infected in human HuH7 cells assessed as antiviral activity by measuring reduction in viral replication preincubated for 12 hrs followed by viral infection and measured day 2 post infection by qRT-PCR method; assay type: cell-based; conditions: MR766, Huh-7
[24] = system: Zika virus; assay: as §1; assay type: cell-based
[25] = Cytotoxicity against human HuH7 cells by MTS assay; assay type: cell-based; conditions: Huh-7 cells

EC50 [1]: 0.28 µM
Compound: CN(Cc1cnc2nc(N)nc(N)c2n1)c1ccc(C(=O)N[C@@H](CCC(=O)O)C(=O)O)cc1 [METHOTREXATE]
CC50 at 24 h [2]: > 10 µM

Compound: CCCCCCCC/C=C\CCCCCCCC(=O)N[C@H](C(=O)N1C[C@H](C)C[C@H]1C(=O)N[C@H](C(=O)N[C@@H](CCO)C(=O)N[C@@H](C)C=O)C(C)C)[C@@H](C)O (Oleoyl-T[Pro(4R-Me)]V[hSer]A-aldehyde)
EC50 [3]: 0.15 µM
CC50 [4]: 1.65 µM

EC50 [5]: 5.95 µM
Compound: O=C(c1cc(Cl)cc(Cl)c1O)c1[nH]c(F)c(Br)c1Br
CC50 [6]: > 100 µM
CC50 [7]: > 100 µM
EC50 [8]: 8.56 µM

Compound: CCN(CC)CCCC(C)Nc1ccnc2cc(Cl)ccc12 (stereo not drawn) [CHLOROQUINE]
CC50 at 120 h [9]: 95 to 135 µM
EC50 [10]: 9.82 to 14.2 µM
CC50 at 120 h [11]: 95 to 135 µM
EC50 [12]: 9.82 to 14.2 µM
CC50 at 120 h [13]: 95 to 135 µM
EC50 [14]: 9.82 to 14.2 µM

IC50 [17]: 39.1 µM
Compound: COc1ccc2cc3[n+](cc2c1OC)CCc1cc2c(cc1-3)OCO2 [BERBERINE]
CC50 [15]: 221 µM
inhibition at 160 µM [16]: 77.6%

EC50 [18]: 2.6 µM
Compound: O=C(O)c1c[nH]c2cc(Cl)c(-c3ccc(C4(O)CCC4)cc3)cc12

Compound: Cc1cc(O)c2c(c1)C(=O)c1cc(O)cc(O)c1C2=O [EMODIN]
CC50 [15]: 68.6 µM
inhibition at 40 µM [19]: 88.3%
IC50 [17]: 3.2 µM

EC50 [21]: 17.4 µM
Compound: O=C1C[C@@H](c2ccccc2)Oc2cc(O)cc(O)c21 [PINOCEMBRIN]
CC50 [20]: 251 µM

Compound: CC[C@H](C)[C@H](NC(=O)[C@H](CO)NC(=O)CNC(=O)[C@H](Cc1ccccc1)NC(=O)[C@H](CC(=O)O)NC(=O)[C@H](Cc1c[nH]c2ccccc12)NC(=O)[C@H](C)N)C(=O)NCC(=O)NCC(=O)N[C@H](C(=O)N[C@@H](Cc1ccccc1)C(=O)N[C@@H](CC(N)=O)C(=O)N[C@@H](CO)C(=O)N[C@H](C(=O)NCC(=O)N[C@@H](CCCCN)C(=O)N[C@@H](C)C(=O)N[C@H](C(=O)N[C@@H](Cc1cnc[nH]1)C(=O)N[C@@H](CCC(N)=O)C(=O)N[C@H](C(=O)N[C@@H](Cc1ccccc1)C(=O)O)C(C)C)C(C)C)[C@@H](C)CC)C(C)C
EC50 [22]: 3.27 µM
CC50 [7]: > 10 µM

EC50 [23]: 0.6 µM
EC90 [24]: 1 µM
Compound: COc1cc(NC(=O)Nc2cccc(CNC(=O)O[C@H]3CCOC3)c2)ccc1-c1cnco1 [MERIMEPODIB]
CC50 [25]: > 10 µM
